PMC4879574, “Identification of Leishmania donovani Topoisomerase 1 inhibitors via intuitive scaffold hopping and bioisosteric modification of known Top 1 inhibitors” (Scientific Reports, 2016)
Where two headings read alike, the source gives them in different places.

Target: LdTop1 (Leishmania donovani, UniProt A0A3Q8IHS4+Q8WQM6)
Assay: Preincubation DNA relaxation inhibition assay, LdTop1
Type: biochemical
Method: To interrogate whether compound 4 interacts with the enzyme, it was preincubated with LdTop1 at different concentration for 5 minutes at 37 °C before the addition of substrate DNA (Fig. 9a).
All the experiments were conducted thrice and representative data from once set of them are expressed as mean ± SD.
The type I DNA topoisomerase are assayed by decreased mobility of the relaxed isomers of supercoiled pBS (SK^+) [pBlue-script (SK^+)] DNA in agarose gel. The relaxation assay was carried out as described previously with LdTop1B and HTop I, diluted in the relaxation buffer (25 mM Tris–HCl, pH 7.5, 5% glycerol, 0.5 mM DTT, 10 mM MgCl2, 50 mM KCl, […] and […] BSA) and supercoiled plasmid pBS (SK^+) DNA (85–95% were negatively supercoiled, with remainder being nicked circles)[9][28][29]. The reconstituted enzyme LdTop1B was assayed at 50 mM KCl concentration as described before. For all kinetic studies, the reaction mixtures containing the buffer and DNA were heated to 37 °C before addition of the enzymes. The reactions were rapidly quenched using stop solution and kept on ice. The gels were stained with ethidium bromide (EtBr) ([…]) and the amount of supercoiled monomer DNA band fluorescence were quantified by integration using Gel Doc 2000 under UV illumination (Bio-Rad Quantity One Software), as described previously.

Sequence of LdTop1 (Q8WQM6 entry or part of it): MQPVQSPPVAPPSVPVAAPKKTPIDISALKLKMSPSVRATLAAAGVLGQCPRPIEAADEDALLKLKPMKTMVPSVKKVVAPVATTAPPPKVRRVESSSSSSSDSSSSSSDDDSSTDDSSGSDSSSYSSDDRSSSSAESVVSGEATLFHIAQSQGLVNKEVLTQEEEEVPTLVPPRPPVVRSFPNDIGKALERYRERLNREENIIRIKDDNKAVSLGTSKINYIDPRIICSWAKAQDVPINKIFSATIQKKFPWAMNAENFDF
Sequence of LdTop1 (A0A3Q8IHS4 entry or part of it): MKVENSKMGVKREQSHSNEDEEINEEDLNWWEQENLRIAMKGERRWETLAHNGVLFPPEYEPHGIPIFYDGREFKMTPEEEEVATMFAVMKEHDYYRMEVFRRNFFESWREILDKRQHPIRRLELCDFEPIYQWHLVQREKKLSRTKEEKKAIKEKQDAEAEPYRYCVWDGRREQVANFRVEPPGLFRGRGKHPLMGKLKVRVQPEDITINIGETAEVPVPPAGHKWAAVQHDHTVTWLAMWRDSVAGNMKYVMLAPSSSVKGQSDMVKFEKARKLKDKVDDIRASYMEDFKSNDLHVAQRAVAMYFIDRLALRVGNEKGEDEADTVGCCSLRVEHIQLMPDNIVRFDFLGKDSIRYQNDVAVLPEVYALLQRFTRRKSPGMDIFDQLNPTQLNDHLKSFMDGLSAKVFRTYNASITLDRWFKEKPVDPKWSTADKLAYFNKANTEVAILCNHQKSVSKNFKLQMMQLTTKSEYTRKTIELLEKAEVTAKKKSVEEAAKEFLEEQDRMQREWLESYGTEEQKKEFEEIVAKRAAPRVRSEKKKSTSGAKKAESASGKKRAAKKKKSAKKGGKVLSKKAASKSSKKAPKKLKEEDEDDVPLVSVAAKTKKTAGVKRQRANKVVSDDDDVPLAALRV

## Cc1cc2c(c(=O)[nH]1)C(=O)O/C2=C\c1ccc(O)c(O)c1 [Compound 4]
pre-incubation, 0.62 uM, read-out: % inhibition, mean data
  inhibition at 0.62 µM: 27.4%
pre-incubation, 1.25 uM, read-out: % inhibition, mean data
  inhibition at 1.25 µM: 49%
pre-incubation, 2.5 uM, read-out: % inhibition, mean data
  inhibition at 2.5 µM: 65.9%
pre-incubation, 5 uM, read-out: % inhibition, mean data
  inhibition at 5 µM: 91.2%
pre-incubation, 10 uM, read-out: % inhibition, mean data
  inhibition at 10 µM: 97.4%
pre-incubation, 20 uM, read-out: % inhibition, mean data
  inhibition at 20 µM: ~100%
Preincubated with LdTop1 5 min 37 °C before DNA, read-out: EC50, preincubation assay
  EC50: 1.72 ± 0.23 µM
read-out: % inhibition (CPT 100%), data 1, pre-incubation, 0.62 uM
  inhibition at 0.62 µM: 27.1%
read-out: % inhibition (CPT 100%), data 1, pre-incubation, 1.25 uM
  inhibition at 1.25 µM: 48.2%
read-out: % inhibition (CPT 100%), data 1, pre-incubation, 2.5 uM
  inhibition at 2.5 µM: 67.4%
read-out: % inhibition (CPT 100%), data 1, pre-incubation, 5 uM
  inhibition at 5 µM: 91.4%
read-out: % inhibition (CPT 100%), data 1, pre-incubation, 10 uM
  inhibition at 10 µM: 97.2%
read-out: % inhibition (CPT 100%), data 1, pre-incubation, 20 uM
  inhibition at 20 µM: 100%
read-out: % inhibition (CPT 100%), data 2, pre-incubation, 0.62 uM
  inhibition at 0.62 µM: 27.7%
read-out: % inhibition (CPT 100%), data 2, pre-incubation, 1.25 uM
  inhibition at 1.25 µM: 49.8%
read-out: % inhibition (CPT 100%), data 2, pre-incubation, 2.5 uM
  inhibition at 2.5 µM: 64.5%
read-out: % inhibition (CPT 100%), data 2, pre-incubation, 5 uM
  inhibition at 5 µM: 91%
read-out: % inhibition (CPT 100%), data 2, pre-incubation, 10 uM
  inhibition at 10 µM: 97.5%
read-out: % inhibition (CPT 100%), data 2, pre-incubation, 20 uM
  inhibition at 20 µM: 100%
Supplement sheet, pre-incubation, concentrations in uM, read-out: EC50 of 4-PI
  EC50: 1.72 µM
